Read-outs that look alike come from different tables or passages of the source.
Key:
[1] = system: MPN Cell Lines (JAK2 and non JAK2 populations); assay: Efficacy of MPN standard of care drugs tested on cell lines; format: cell-based; details: for sensitive in % of JAK2 Cell line populations: JAK2 cell lines; for resistance in % of non JAK2 population: non JAK2 cell lines
Source text: (§1) Efficacy comparison study of standard of care drugs in MPN Cell Lines and Patients is provided hereunder: […]

[2] = system: MPN patients (JAK2 and non JAK2 populations); assay: Efficacy of standard of care drugs on patient cohort; details: for sensitive in % of JAK2 patient populations: JAK2 patients; for resistance in % of non JAK2 patient's population: non JAK2 patients
Source text: as §1

[3] = in vivo; cited from earlier work
[4] = in vivo, cited from earlier work
[5] = cited from earlier work
[6] = system: patients with JAK2 aberration, Chromosome 8 / Chromosome 9 aberration; assay: Analysis of Ruxolitinib non-responder cases in JAK2 aberration segment (efficacy score, chromosome 8/9 genes)
Source text: Next, screening was done for all patient's resistant to Ruxolitinib (JAKAFI®) but sensitive to the drug combination of CQ+M+S.

[7] = system: Jakafi resistant JAK2 V617F harboring BaF3 cell-line; details: metformin 0.25 mM, 0.5 mM, 1 mM, 5 mM and 10 mM
Experimental: Relative growth of cells was assessed using MTT assay.
Viable cells % was assessed using MTT assay.
Viable cells % was assessed using MTT assay (FIG. 7a).

[8] = after meal, chloroquine 200 mg morning, metformin 1250 mg morning and evening, rosuvastatin 20 mg evening

Row | SMILES | sensitive in % of JAK2 Cell line populations [1] [%] | resistance in % of non JAK2 population [1] [%] | sensitive in % of JAK2 patient populations [2] [%] | resistance in % of non JAK2 patient's population [2] [%] | Headache, All Grades [3] [%] | MTD (maximum tolerated dose) [4] [mg/day] | other results
1 | Cc1ccc(NC(=O)c2ccc(CN3CCN(C)CC3)cc2)cc1Nc1nccc(-c2cccnc2)n1 [Imatinib] | 0 | 83.33 | 0.5 | 100 | – | – | –
2 | CC(C)c1nc(N(C)S(C)(=O)=O)nc(-c2ccc(F)cc2)c1/C=C/[C@@H](O)C[C@@H](O)CC(=O)O [Rosuvastatin, rosuvastatin] | – | – | – | – | 8.5 | 60 | Nausea, All Grades [3]: 6.3%; MTD (maximum tolerated dose) ([4]; listed as rosuvastatin): about 60 mg/day; Peak Concentration at Dosage [5, 8]: 0.09 µM
3 | Nc1ncn([C@H]2C[C@H](O)[C@@H](CO)O2)c(=O)n1 [Decitabine] | 50 | 50 | 34.16 | 74 | – | – | –
4 | Nc1ncn([C@@H]2O[C@H](CO)[C@@H](O)[C@H]2O)c(=O)n1 [Azacytidine] | 50 | 50 | 34.16 | 74 | – | – | –
5 | NC(=O)NO [Hydroxyurea] | 0 | 100 | 1 | 100 | – | – | –
6 | O=C1CCC(N2C(=O)c3ccccc3C2=O)C(=O)N1 (stereo not shown) [Thalidomide] | 75 | 16.67 | 33.17 | 75.61 | – | – | –
7 | N#CC[C@H](C1CCCC1)n1cc(-c2ncnc3[nH]ccc23)cn1 [Ruxolitinib, ruxolitinib] | 75 | 83.33 | 81.18 | 87.81 | 14.8 | – | Anemia, All Grades [3]: 96.1%; Neutropenia, All Grades [3]: 18.7%; Thrombocytopenia, All Grades [3]: 69.7%; patients with Anemia of grade 3 or more [3]: 40-45%
8 | CN(C)C(=N)N=C(N)N [Metformin, metformin] | – | – | – | – | 5.7 | 2500 | Response ([6]; Gene TGFBR1, Chromosome 9, Trisomy 9): Inclusion; cell viability, viable cells % (MTT) [7]: steady decrease in cell viability; Diarrhoea, All Grades [3]: 53%; Nausea, All Grades [3]: 25.5%; grade ¾ toxicity [3]: rarely reported; MTD (maximum tolerated dose) ([4]; listed as metformin): about 2500 mg/day; Peak Concentration at Dosage ([5]; in vivo): 5.8 µM
9 | CCN(CC)CCCC(C)Nc1ccnc2cc(Cl)ccc12 (stereo not shown) [Chloroquine, chloroquine] | – | – | – | – | – | 600 | Response ([6]; Gene MCL1, Chromosome 8, Trisomy 8): Inclusion; grade ¾ toxicity [3]: rarely reported; MTD (maximum tolerated dose) ([4]; listed as chloroquine): about 600 mg/day; Peak Concentration at Dosage [5, 8]: 1.18 µM; t½ ([5]; in vivo): 20 to 60 days

Source: patent US20220305000A1 (Cellworks Group Inc., priority 2021, published 2022)
